Measurements: patent US10098350B2, “Fungicidal amides” (E. I. DU PONT DE NEMOURS AND COMPANY, priority 2013, dated 2018)

Legend:
Assay type in all cases: in vivo
[1] = test system: Stagonospora nodorum (also known as Septoria nodorum); assay: Test B: wheat seedlings sprayed with test suspension, inoculated with Stagonospora nodorum (wheat glume blotch), visual disease rating
Source text: (§1) General protocol for preparing test suspensions for Tests A-E: the test compounds were first dissolved in acetone in an amount equal to 3% of the final volume and then suspended at the desired concentration (in ppm) in acetone and purified water (50/50 mix by volume) containing 250 ppm of the surfactant Trem® 014 (polyhydric alcohol esters). The resulting test suspensions were then used in Tests A-E. Samples were applied to plants at either a 10 ppm (**), 40 ppm, 50 ppm (*) or 200 ppm (#) test solution to the point of run-off on the test plants with the equivalent of a rate of 40 g ai/ha, 160 g ai/ha, 200 g ai/ha, or 800 g ai/ha, respectively.
(§2) The test suspension was sprayed to the point of run-off on wheat seedlings. The following day the seedlings were inoculated with a spore suspension of Stagonospora nodorum (also known as Septoria nodorum; the causal agent of wheat glume blotch) and incubated in a saturated atmosphere at 20° C. for 48 h, and then moved to a growth chamber at 20° C. for 6 days, after which time visual disease ratings were made.
(§3) Results for Tests A-E are given in Table A. In the Table, a rating of 100 indicates 100% disease control and a rating of 0 indicates no disease control (relative to the controls). A dash (-) indicates no test results.

[2] = test system: Erysiphe graminis f. sp. tritici; assay: Test E: wheat seedlings sprayed with test suspension, inoculated with Erysiphe graminis f. sp. tritici (wheat powdery mildew), visual disease rating
Source text: as §1
The test suspension was sprayed to the point of run-off on wheat seedlings. The following day the seedlings were inoculated with a spore dust of Erysiphe graminis f. sp. tritici, (the causal agent of wheat powdery mildew) and incubated in a growth chamber at 20° C. for 7 or 8 days, after which time visual disease ratings were made.
as §3

Botrytis cinerea = assay: Test A: tomato seedlings sprayed with test suspension, inoculated with Botrytis cinerea (gray mold), visual disease rating; conditions: Cmpd. No. unmarked; 100 = 100% disease control, 0 = no control relative to controls
Source text: as §1
The test suspension was sprayed to the point of run-off on tomato seedlings. The following day the seedlings were inoculated with a spore suspension of Botrytis cinerea (the causal agent of gray mold on many crops) and incubated in a saturated atmosphere at 20° C. for 48 h, and moved to a growth chamber at 27° C. for 2 days, after which time visual disease ratings were made.
as §3

[3] = test system: Puccinia recondite f. sp. tritici; assay: Test D: wheat seedlings sprayed with test suspension, inoculated with Puccinia recondite f. sp. tritici (wheat leaf rust), visual disease rating
Source text: as §1
as §2, with “Puccinia recondite f. sp. tritici; (the” for “Stagonospora nodorum (also known as Septoria nodorum; the”, “leaf rust)” for “glume blotch)”, “24” for “48”
as §3

Septoria tritici = assay: Test C: wheat seedlings sprayed with test suspension, inoculated with Septoria tritici (wheat leaf blotch), visual disease rating
Source text: as §1
The test suspension was sprayed to the point of run-off on wheat seedlings. The following day the seedlings were inoculated with a spore suspension of Septoria tritici (the causal agent of wheat leaf blotch) and incubated in a saturated atmosphere at 24° C. for 48 h, and then moved to a growth chamber at 20° C. for 21 days, after which time visual disease ratings were made.
as §3

[4] = Cmpd. No. unmarked, 100 = 100% disease control, 0 = no control relative to controls
[5] = Cmpd. No. marked '**' (other test rate; meaning of mark not shown)
[6] = Cmpd. No. marked '*' (other test rate; meaning of mark not shown)

Structure (SMILES): Cn1nc(C(F)F)c(C(=O)N(Cc2ccc(-n3ccc(C(F)(F)F)n3)cc2C(F)(F)F)C2CC2)c1F [compound 37]
- Test B rating (% disease control) [1, 4]: 100%
- Test E rating (% disease control) [2, 4]: 99%
- Test A rating (% disease control) (Botrytis cinerea): 0%
- Test D rating (% disease control) [3, 4]: 97%

Structure (SMILES): CC(c1cc(Cl)cc(-n2ccc(C(F)(F)F)n2)c1)N(C(=O)c1cn(C)nc1C(F)F)C1CC1 (stereo not drawn) [compound 22]
- Test B rating (% disease control) [1, 4]: 90%
- Test E rating (% disease control) [2, 4]: 81%
- Test A rating (% disease control) (Botrytis cinerea): 0%
- Test D rating (% disease control) [3, 4]: 55%

Structure (SMILES): Cn1cc(C(=O)N(Cc2c(Cl)cc(-n3cccn3)cc2Cl)C2CC2)c(C(F)F)n1 [compound 24]
- Test B rating (% disease control) [1, 4]: 100%
- Test E rating (% disease control) [2, 4]: 90%
- Test A rating (% disease control) (Botrytis cinerea): 0%
- Test D rating (% disease control) [3, 4]: 99%

Structure (SMILES): Cn1nc(C(F)F)c(C(=O)N(Cc2ccc(-n3ccc(C(F)(F)F)n3)cc2OC(F)(F)F)C2CC2)c1F [compound 23]
- Test B rating (% disease control) [1, 4]: 98%
- Test E rating (% disease control) [2, 4]: 98%
- Test A rating (% disease control) (Botrytis cinerea): 0%
- Test D rating (% disease control) [3, 4]: 99%

Structure (SMILES): Cc1ccc(-n2ccc(C(F)(F)F)n2)cc1C(C)N(C(=O)c1cn(C)nc1C(F)F)C1CC1 (stereo not drawn) [compound 45]
- Test B rating (% disease control) [1, 4]: 100%
- Test E rating (% disease control) [2, 4]: 90%
- Test D rating (% disease control) [3, 4]: 9%
- Test C rating (% disease control) (Septoria tritici; [4]): 96%

Structure (SMILES): CC(c1ncc(-n2cc(Cl)cn2)cc1Cl)N(C(=O)c1c(C(F)F)nn(C)c1F)C1CC1 (racemic) [compound 97]
- Test B rating (% disease control) [1, 5]: 100%
- Test E rating (% disease control) [2, 5]: 94%
- Test D rating (% disease control) [3, 5]: 94%
- Test C rating (% disease control) (Septoria tritici; [5]): 97%

Structure (SMILES): Cn1nc(C(F)F)c(C(=O)N(Cc2ccc(-n3ccc(C(F)(F)F)n3)cc2Br)C2CC2)c1F [compound 106]
- Test B rating (% disease control) [1, 4]: 100%
- Test E rating (% disease control) [2, 4]: 97%
- Test D rating (% disease control) [3, 4]: 99%
- Test C rating (% disease control) (Septoria tritici; [4]): 96%

Structure (SMILES): Cn1nc(C(F)F)c(C(=O)N(Cc2ccc(-n3ccc(C(F)(F)F)n3)cc2F)C2CC2)c1F [compound 68]
- Test B rating (% disease control) [1, 4]: 100%
- Test E rating (% disease control) [2, 4]: 99%
- Test D rating (% disease control) [3, 4]: 91%
- Test C rating (% disease control) (Septoria tritici; [4]): 97%

Structure (SMILES): Cn1nc(C(F)F)c(C(=O)N(Cc2ccc(-n3nccn3)cc2Cl)C2CC2)c1F [compound 64]
- Test B rating (% disease control) [1, 4]: 100%
- Test E rating (% disease control) [2, 4]: 97%
- Test D rating (% disease control) [3, 4]: 100%
- Test C rating (% disease control) (Septoria tritici; [4]): 98%

Structure (SMILES): Cn1cc(C(=O)N(Cc2c(F)cc(-n3ccc(C(F)(F)F)n3)cc2F)C2CC2)c(C(F)F)n1 [compound 71]
- Test B rating (% disease control) [1, 4]: 92%
- Test E rating (% disease control) [2, 4]: 91%
- Test D rating (% disease control) [3, 4]: 0%
- Test C rating (% disease control) (Septoria tritici; [4]): 99%

Structure (SMILES): Cn1nc(C(F)F)c(C(=O)N(Cc2c(Cl)cc(-n3ccc(C(F)(F)F)n3)cc2Cl)C2CC2)c1F [compound 127]
- Test B rating (% disease control) [1, 4]: 100%
- Test E rating (% disease control) [2, 4]: 98%
- Test D rating (% disease control) [3, 4]: 100%
- Test C rating (% disease control) (Septoria tritici; [4]): 99%

Structure (SMILES): CC(c1ccc(C(F)(F)F)c(-n2ccc(C(F)(F)F)n2)c1)N(C(=O)c1c(C(F)F)nn(C)c1F)C1CC1 (stereo not drawn) [compound 51]
- Test B rating (% disease control) [1, 4]: 100%
- Test E rating (% disease control) [2, 4]: 84%
- Test D rating (% disease control) [3, 4]: 0%
- Test C rating (% disease control) (Septoria tritici; [4]): 88%

Structure (SMILES): Cn1nc(C(F)F)c(C(=O)N(Cc2ccc(-n3ccc(C(F)(F)F)n3)cc2Cl)C2COC2)c1F [Compound 164]
- Test B rating (% disease control) [1, 5]: 0%
- Test E rating (% disease control) [2, 5]: 0%
- Test D rating (% disease control) [3, 5]: 0%
- Test C rating (% disease control) (Septoria tritici; [5]): 46%

Structure (SMILES): Cn1nc(C(F)F)c(C(=O)N(Cc2cnc(-n3ccc(C(F)(F)F)n3)c(Cl)c2)C2CC2)c1F [compound 43]
- Test B rating (% disease control) [1, 4]: 0%
- Test E rating (% disease control) [2, 4]: 0%
- Test D rating (% disease control) [3, 4]: 0%
- Test C rating (% disease control) (Septoria tritici; [4]): 6%

Structure (SMILES): COc1ccc(-n2ccc(C(F)(F)F)n2)cc1C(C)N(C(=O)c1c(C(F)F)nn(C)c1F)C1CC1 (stereo not drawn) [compound 142]
- Test B rating (% disease control) [1, 6]: 100%
- Test E rating (% disease control) [2, 6]: 98%
- Test D rating (% disease control) [3, 6]: 83%
- Test C rating (% disease control) (Septoria tritici; [6]): 97%

Structure (SMILES): Cn1nc(C(F)F)c(C(=O)N(Cc2ccc(-n3cncn3)cc2Cl)C2CC2)c1F [compound 145]
- Test B rating (% disease control) [1, 4]: 95%
- Test E rating (% disease control) [2, 4]: 0%
- Test D rating (% disease control) [3, 4]: 0%
- Test C rating (% disease control) (Septoria tritici; [4]): 95%

Structure (SMILES): Cn1cc(C(=O)N(Cc2ccnc(-n3ccc(C(F)(F)F)n3)c2Cl)C2CC2)c(C(F)F)n1 [compound 100]
- Test B rating (% disease control) [1, 5]: 0%
- Test E rating (% disease control) [2, 5]: 0%
- Test D rating (% disease control) [3, 5]: 0%
- Test C rating (% disease control) (Septoria tritici; [5]): 6%

Structure (SMILES): Cn1cc(C(=O)N(Cc2ccc(-n3ccc(Br)n3)cc2Cl)C2CC2)c(C(F)F)n1 [compound 49]
- Test B rating (% disease control) [1, 4]: 98%
- Test E rating (% disease control) [2, 4]: 69%
- Test D rating (% disease control) [3, 4]: 9%
- Test C rating (% disease control) (Septoria tritici; [4]): 99%

Structure (SMILES): CC(C)c1cc(-n2ccc(C(F)(F)F)n2)ccc1CN(C(=O)c1c(C(F)F)nn(C)c1F)C1CC1 [compound 121]
- Test B rating (% disease control) [1, 4]: 100%
- Test E rating (% disease control) [2, 4]: 99%
- Test D rating (% disease control) [3, 4]: 100%
- Test C rating (% disease control) (Septoria tritici; [4]): 95%

Structure (SMILES): COc1ccc(C(C)N(C(=O)c2cn(C)nc2C(F)F)C2CC2)cc1-n1ccc(C(F)(F)F)n1 (stereo not drawn) [compound 44]
- Test B rating (% disease control) [1, 4]: 78%
- Test E rating (% disease control) [2, 4]: 0%
- Test D rating (% disease control) [3, 4]: 0%
- Test C rating (% disease control) (Septoria tritici; [4]): 87%

Structure (SMILES): Cn1nc(C(F)F)c(C(=O)N(Cc2ccc(-n3cnc(Cl)n3)cc2Cl)C2CC2)c1F [compound 146]
- Test B rating (% disease control) [1, 4]: 0%
- Test E rating (% disease control) [2, 4]: 0%
- Test D rating (% disease control) [3, 4]: 0%
- Test C rating (% disease control) (Septoria tritici; [4]): 94%

Structure (SMILES): Cn1nc(C(F)F)c(C(=O)N(Cc2ccc(-n3cnc(Br)n3)cc2Cl)C2CC2)c1F [compound 147]
- Test B rating (% disease control) [1, 4]: 0%
- Test E rating (% disease control) [2, 4]: 0%
- Test D rating (% disease control) [3, 4]: 0%
- Test C rating (% disease control) (Septoria tritici; [4]): 93%

Structure (SMILES): Cn1cc(C(=O)N(Cc2ccc(-n3cncn3)cc2Cl)C2CC2)c(C(F)F)n1 [compound 50]
- Test B rating (% disease control) [1, 4]: 0%
- Test E rating (% disease control) [2, 4]: 0%
- Test D rating (% disease control) [3, 4]: 0%
- Test C rating (% disease control) (Septoria tritici; [4]): 28%

Structure (SMILES): Cc1ccc(-n2ccc(C(F)(F)F)n2)cc1CN(C(=O)c1c(C(F)F)nn(C)c1F)C1CC1 [compound 84]
- Test B rating (% disease control) [1, 6]: 100%
- Test E rating (% disease control) [2, 6]: 94%
- Test D rating (% disease control) [3, 6]: 89%
- Test C rating (% disease control) (Septoria tritici; [6]): 98%

Structure (SMILES): CC(c1cc(-n2ccc(C(F)(F)F)n2)cc(C(F)(F)F)c1)N(C(=O)c1c(C(F)F)nn(C)c1F)C1CC1 (stereo not drawn) [compound 56]
- Test B rating (% disease control) [1, 4]: 100%
- Test E rating (% disease control) [2, 4]: 92%
- Test D rating (% disease control) [3, 4]: 86%
- Test C rating (% disease control) (Septoria tritici; [4]): 97%

Structure (SMILES): Cn1nc(C(F)F)c(C(=O)N(Cc2cc(-n3ccc(C(F)(F)F)n3)ccc2Cl)C2CC2)c1F [compound 86]
- Test B rating (% disease control) [1, 6]: 100%
- Test E rating (% disease control) [2, 6]: 95%
- Test D rating (% disease control) [3, 6]: 68%
- Test C rating (% disease control) (Septoria tritici; [6]): 99%

Structure (SMILES): CC(c1cc(-n2ccc(C(F)(F)F)n2)ccc1[N+](=O)[O-])N(C(=O)c1c(C(F)F)nn(C)c1F)C1CC1 (stereo not drawn) [compound 134]
- Test B rating (% disease control) [1, 6]: 94%
- Test E rating (% disease control) [2, 6]: 0%
- Test D rating (% disease control) [3, 6]: 68%
- Test C rating (% disease control) (Septoria tritici; [6]): 43%
